System: 997537-175-T-J1-PDC complex spheroid viability
Assay: Anticancer human tumor 997537-175-T-J1-PDC patient-derived colon adenocarcinoma cell line growth inhibition [GQUAD]
Settings: for IC50: curve of first compound; for viability, T/C: stronger effect = lower value; active = viability on the fitted dose curve at most 10% of control; inactive = the rest
Outline: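 Tumor cells were grown as complex spheroids with HUVEC endothelial cells and mesenchymal stem cells as stroma. G-quadruplex stabilizers were combined with targeted agents over half-log dilutions from near the clinical Cmax, or from 10 microM.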

[1] = second compound 0.0316 µM, first compound 0.0316 µM
[2] = second compound 0.0316 µM, first compound 0.1 µM
[3] = second compound 0.0316 µM, first compound 0.316 µM
[4] = second compound 0.0316 µM, first compound 1 µM
[5] = second compound 0.0316 µM, first compound 3.16 µM
[6] = second compound 0.0316 µM, first compound 10 µM
[7] = second compound 0.1 µM, first compound 0.0316 µM
[8] = second compound 0.1 µM, first compound 0.1 µM
[9] = second compound 0.1 µM, first compound 0.316 µM
[10] = second compound 0.1 µM, first compound 1 µM
[11] = second compound 0.1 µM, first compound 3.16 µM
[12] = second compound 0.1 µM, first compound 10 µM
[13] = second compound 0.316 µM, first compound 0.0316 µM
[14] = second compound 0.316 µM, first compound 0.1 µM
[15] = second compound 0.316 µM, first compound 0.316 µM
[16] = second compound 0.316 µM, first compound 1 µM
[17] = second compound 0.316 µM, first compound 3.16 µM
[18] = second compound 0.316 µM, first compound 10 µM
[19] = second compound 1 µM, first compound 0.0316 µM
[20] = second compound 1 µM, first compound 0.1 µM
[21] = second compound 1 µM, first compound 0.316 µM
[22] = second compound 1 µM, first compound 1 µM
[23] = second compound 1 µM, first compound 3.16 µM
[24] = second compound 1 µM, first compound 10 µM
[25] = second compound 3.16 µM, first compound 0.0316 µM
[26] = second compound 3.16 µM, first compound 0.1 µM
[27] = second compound 3.16 µM, first compound 0.316 µM
[28] = second compound 3.16 µM, first compound 1 µM
[29] = second compound 3.16 µM, first compound 3.16 µM
[30] = second compound 3.16 µM, first compound 10 µM
[31] = second compound 10 µM, first compound 0.0316 µM
[32] = second compound 10 µM, first compound 0.1 µM
[33] = second compound 10 µM, first compound 0.316 µM
[34] = second compound 10 µM, first compound 1 µM
[35] = second compound 10 µM, first compound 3.16 µM
[36] = second compound 10 µM, first compound 10 µM
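Also: spheroids exposed to the agents for 7 days.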
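For viability, T/C in this document: 100% = DMSO vehicle control viability.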

CC(C)n1c(=O)n(C)c2cnc3cc(F)c(-c4ccc(OCCCN5CCCCC5)nc4)cc3c21 + Cc1[nH]c2ccc(F)cc2c1-c1nc2c3cccnc3c3ncccc3c2[nH]1
> 10 µM: IC50 (second compound 0.0316 µM) | IC50 (second compound 0.1 µM) | IC50 (second compound 0.316 µM) | IC50 (second compound 1 µM) | IC50 (second compound 3.16 µM) | IC50 (second compound 10 µM)
inactive: viability, T/C [1] 117% | viability, T/C [2] 104% | viability, T/C [3] 112% | viability, T/C [4] 98.2% | viability, T/C [5] 113% | viability, T/C [6] 106% | viability, T/C [7] 121% | viability, T/C [8] 97.6% | viability, T/C [9] 97.6% | viability, T/C [10] 95.6% | viability, T/C [11] 108% | viability, T/C [12] 99.9% | viability, T/C [13] 94.2% | viability, T/C [14] 103% | viability, T/C [15] 88.8% | viability, T/C [16] 77.9% | viability, T/C [17] 116% | viability, T/C [18] 84% | viability, T/C [19] 86.4% | viability, T/C [20] 109% | viability, T/C [21] 91.1% | viability, T/C [22] 107% | viability, T/C [23] 112% | viability, T/C [24] 98.8% | viability, T/C [25] 89.3% | viability, T/C [26] 100% | viability, T/C [27] 100% | viability, T/C [28] 93.2% | viability, T/C [29] 98.2% | viability, T/C [30] 90.5% | viability, T/C [31] 81.5% | viability, T/C [32] 79.9% | viability, T/C [33] 95.7% | viability, T/C [34] 79.9% | viability, T/C [35] 88.9% | viability, T/C [36] 72.5%

O=C(NO)c1cnc(N2CCN(S(=O)(=O)c3ccc4ccccc4c3)CC2)nc1 + Cc1cnc(CNC(=O)c2c(=O)c3ccc(N4CCCN(C)CC4)nc3n3c2sc2ccccc23)cn1
2.11 µM: IC50 (second compound 0.1 µM)
active: viability, T/C [6] 0.4% | viability, T/C [12] 0.47% | viability, T/C [18] 0.31% | viability, T/C [24] 0.31% | viability, T/C [30] 1.15% | viability, T/C [36] 0.29%
1.93 µM: IC50 (second compound 0.0316 µM)
1.96 µM: IC50 (second compound 1 µM)
4.01 µM: IC50 (second compound 0.316 µM)
1.62 µM: IC50 (second compound 10 µM)
1.84 µM: IC50 (second compound 3.16 µM)
inactive: viability, T/C [1] 107% | viability, T/C [2] 92.3% | viability, T/C [3] 96.3% | viability, T/C [4] 81.2% | viability, T/C [5] 26.8% | viability, T/C [7] 105% | viability, T/C [8] 97% | viability, T/C [9] 80.7% | viability, T/C [10] 69% | viability, T/C [11] 41.7% | viability, T/C [13] 94.7% | viability, T/C [14] 100% | viability, T/C [15] 85.6% | viability, T/C [16] 73.2% | viability, T/C [17] 69.8% | viability, T/C [19] 83.9% | viability, T/C [20] 90% | viability, T/C [21] 104% | viability, T/C [22] 93% | viability, T/C [23] 19.4% | viability, T/C [25] 104% | viability, T/C [26] 116% | viability, T/C [27] 93.5% | viability, T/C [28] 83.2% | viability, T/C [29] 21.4% | viability, T/C [31] 108% | viability, T/C [32] 88.7% | viability, T/C [33] 103% | viability, T/C [34] 77.5% | viability, T/C [35] 11.4%

Source: PubChem BioAssay AID2060487 (Molecular Pharmacology Branch, DTP, NCI, 2025)
